Earlier results in patent publication US10172902B2, “Ocular eyelid scrub composition for the treatment of demodex blepharitis” (LUNOVUS, LLC, priority 2014, dated 2019).

System: ocular Demodex
Details: solutions, suspensions, sprays, lotions, gels, pastes, cleansers, creams or ointments

SMILES: CC1=CCC(O)(C(C)C)CC1 (stereo not shown) [terpinen-4-ol]
- treating an ocular Demodex infestation or Demodex-induced blepharitis: effective
